Measurements as given in patent publication US12599560B2, “Lipids and lipid nanoparticle formulations” (Longuide Biopharma Corporation, priority 2023, dated 2026).

Legend:
[1] = system: mice; experiment: In vivo delivery of FLuc-mRNA lipid nanoparticle preparations in mice (IVIS imaging); parameters: In vivo IVIS / In vivo IVIS (liver) / In vivo IVIS (spleen): unit not given here
Protocol: 7. In Vivo Delivery of the Nucleic Acid Lipid Nanoparticle Preparations in Mice After the preparation was completed, the preparation was injected intramuscularly (mice rectus femoris muscle of the thigh) or intravenously (mice tail vein), with approximately 75 μL per mouse, for a total of 3 mice. After a certain time of injection, in vivo imaging (PerkinElmer, IVIS Lumina III) was performed. 10-15 minutes before imaging, 200 μL of 15 mg/mL D-Luciferin working solution was injected intraperitoneally, and the imaging analysis was performed using an in vivo imager.

[2] = Particle size and PDI by dynamic light scattering; assay type: physicochemical
Protocol: The 7.5 μL nucleic acid lipid nanoparticle solution (containing approximately 0.04 mg/mL mRNA) was taken and added with 200 μL ultrapure water, mixed by gentle blowing using a pipette tip, and the particle size of the nanopreparation was detected by dynamic lightscattering (DLS) using a Malvern Dynamic Light Scattering Instrument (Malvern Instruments Ltd., ZEN3700, UK). 27.5 μL nucleic acid lipid nanoparticle solution (containing about 0.04 mg/mL mRNA) was taken and added with 200 μL ultrapure water. A pipette tip was used to gently blow the sample and mix well. The particle size of the nanopreparation was detected by Malvern Dynamic Light Scattering Instrument (Malvern Instruments Ltd., ZEN3700, UK). After the detection, the sample was recovered to an EP tube, and 600 μL of ultrapure water was added, gently blown with a pipette tip, and the potential of the nanopreparation was measured by a Malvern particle size meter.

[3] = Table 2, IV, whole body scan, molar ratio DMG-PEG2000:DSPC:Chol:Lipid and N/P
[4] = Table 2, LNP formulation with mRNA
[5] = Table 4, molar ratio 1.40:11.15:38.95:48.50, N/P 32, IV formulation
[6] = Table 4, molar ratio 2.00:4.00:59.00:35.00, N/P 35, IM formulation

PDI ([2]; Table 4) | Particle size (nm) ([2]; Table 4) | SMILES | In vivo IVIS ([1]; Table 4, IM) | In vivo IVIS ([1]; Table 4, IV) | other results
0.14 ± 0.03 | 176.67 ± 1.97 | CCCCCCCCCCCCNC(=O)C(O)CN(Cc1ccc(CN(CC(O)C(=O)NCCCCCCCCCCCC)CC(O)C(=O)NCCCCCCCCCCCC)cc1)CC(O)C(=O)NCCCCCCCCCCCC (centres unmarked) [Compound L0208] | 1.94 × 10^6 | 2.27 × 10^5 | 
 |  | CCCCCCCCC(CCCCCC)C(=O)OCCCCCCOC(=O)C(O)CN1CCN(CCN(CC(O)C(=O)OCCCCCCOC(=O)C(CCCCCC)CCCCCCCC)CC(O)C(=O)OCCCCCCOC(=O)C(CCCCCC)CCCCCCCC)CC1 (centres unmarked) [Compound L0188] |  |  | In vivo IVIS ([1]; Table 2, IM, whole body scan): 1.87 × 10^7; In vivo IVIS (liver) ([1]; Table 2, IV): 4.17 × 10^7; In vivo IVIS (spleen) ([1]; Table 2, IV): 4.65 × 10^7; In vivo IVIS [1, 3]: 1.61 × 10^8; Particle size (nm) [2, 4]: 97.72 ± 1.19 nm; PDI ([2]; Table 2, polydispersity value): 0.22 ± 0.02
0.18 ± 0.01 | 174.43 ± 1.85 | CCCCCCCCCCCCNC(=O)C(O)CN(CC(O)C(=O)NCCCCCCCCCCCC)[C@H]1CC[C@@H](N(CC(O)C(=O)NCCCCCCCCCCCC)CC(O)C(=O)NCCCCCCCCCCCC)CC1 (some centres unmarked) [Compound L0213] | 2.36 × 10^5 | 3.64 × 10^5 | 
0.10 ± 0.01 | 117.87 ± 1.55 | CC/C=C\CCOCOCCCCCCOC(=O)C(O)CN(CCCN1CCN(CCCN(CC(O)C(=O)OCCCCCCOCOCC/C=C\CC)CC(O)C(=O)OCCCCCCOCOCC/C=C\CC)CC1)CC(O)C(=O)OCCCCCCOCOCC/C=C\CC (centres unmarked) [Compound L0225] | 3.13 × 10^8 | 2.15 × 10^9 | 
0.15 ± 0.01 |  | CCCCCCCCCCOC(=O)C(O)CN(CCN1CCN(CCN(CC(O)C(=O)OCCCCCCCCCC)CC(O)C(=O)OCCCCCCCCCC)CC1)CCN(CC(O)C(=O)OCCCCCCCCCC)CC(O)C(=O)OCCCCCCCCCC (centres unmarked) [Compound L0210] | 2.48 × 10^7 | 6.93 × 10^9 | Particle size (nm) ([2]; Table 4, molar ratio 1.00:16.00:48.00:35.00, N/P 30, IV formulation): 101.83 ± 0.21 nm; Particle size (nm) ([2]; Table 4, molar ratio 1.40:11.15:38.95:48.50, N/P 40, IM formulation): 94.89 ± 0.78 nm
 |  | CCCCCCCCCCCCOC(=O)CCN(CCCN1CCN(CCCN(CCC(=O)OCCCCCCCCCCCC)CCC(=O)OCCCCCCCCCCCC)CC1)CCC(=O)OCCCCCCCCCCCC [L0191-Control, reference compound] | 1.07 × 10^6 | 2.30 × 10^6 | delivery efficiency, times lower than the hydroxy compound (L0191 or L0199) ([1]; IM administration): ~20 times; delivery efficiency, times lower than the hydroxy compound (L0191 or L0199) ([1]; IV administration): about 420 times
 |  | CCCCCCC(CCCCCC)C(=O)OCCCCCCOC(=O)C(O)CN(CCCN1CCN(CCCN(CC(O)C(=O)OCCCCCCOC(=O)C(CCCCCC)CCCCCC)CC(O)C(=O)OCCCCCCOC(=O)C(CCCCCC)CCCCCC)CC1)CC(O)C(=O)OCCCCCCOC(=O)C(CCCCCC)CCCCCC (centres unmarked) [Compound L0227] | 3.49 × 10^8 | 2.49 × 10^8 | PDI [2, 5]: 0.15 ± 0.01; Particle size (nm) [2, 5]: 113.50 ± 0.96 nm; PDI [2, 6]: 0.13 ± 0.01; Particle size (nm) [2, 6]: 112.03 ± 0.65 nm
0.21 ± 0.01 | 177.07 ± 1.00 | CCCCCCCCCCCCNC(=O)C(O)CN(CC(O)C(=O)NCCCCCCCCCCCC)[C@H]1CC[C@H](N(CC(O)C(=O)NCCCCCCCCCCCC)CC(O)C(=O)NCCCCCCCCCCCC)CC1 (some centres unmarked) [Compound L0214] | 2.46 × 10^5 | 3.60 × 10^5 | 
 |  | CCCCCCCCCCCCNC(=O)C(O)CN(CC(=O)NCCCN1CCN(CCCNC(=O)CN(CC(O)C(=O)NCCCCCCCCCCCC)CC(O)C(=O)NCCCCCCCCCCCC)CC1)CC(O)C(=O)NCCCCCCCCCCCC (centres unmarked) [Compound L0193] |  |  | In vivo IVIS ([1]; Table 2, IM, whole body scan): 2.43 × 10^5; In vivo IVIS [1, 3]: 4.33 × 10^5; Particle size (nm) [2, 4]: 93.86 ± 0.59 nm; PDI ([2]; Table 2, polydispersity value): 0.11 ± 0.02
 |  | CCCC/C=C\CCOCOCCCCOC(=O)C(O)CN(CCN1CCN(CCN(CC(O)C(=O)OCCCCOCOCC/C=C\CCCC)CC(O)C(=O)OCCCCOCOCC/C=C\CCCC)CC1)CCN(CC(O)C(=O)OCCCCOCOCC/C=C\CCCC)CC(O)C(=O)OCCCCOCOCC/C=C\CCCC (centres unmarked) [Compound L0202] |  |  | In vivo IVIS ([1]; Table 2, IM, whole body scan): 9.20 × 10^7; In vivo IVIS [1, 3]: 3.73 × 10^9; in vivo delivery efficiency as compared to the benchmark compound SM102 ([1]; certain formulations, Table 2): superior in vivo delivery efficiency; Particle size (nm) [2, 4]: 114.43 ± 0.96 nm; PDI ([2]; Table 2, polydispersity value): 0.07 ± 0.02
0.05 ± 0.01 | 133.83 ± 0.72 | CCCC/C=C\CCOCOCCCCOC(=O)C(O)CN1CCN(CCN(CC(O)C(=O)OCCCCOCOCC/C=C\CCCC)CC(O)C(=O)OCCCCOCOCC/C=C\CCCC)CC1 (centres unmarked) [Compound L0222] | 4.38 × 10^5 | 7.94 × 10^6 | 
0.09 ± 0.03 | 115.53 ± 1.04 | CCCC/C=C\CCOCOCCCCOC(=O)C(O)CN(CCCN1CCN(CCCN(CC(O)C(=O)OCCCCOCOCC/C=C\CCCC)CC(O)C(=O)OCCCCOCOCC/C=C\CCCC)CC1)CC(O)C(=O)OCCCCOCOCC/C=C\CCCC (centres unmarked) [Compound L0226] | 1.41 × 10^8 | 1.24 × 10^9 | 
0.09 ± 0.01 | 102.47 ± 0.96 | CCCCCCCCCCNC(=O)C(O)CN[C@H]1CC[C@H](N(CC(O)C(=O)NCCCCCCCCCC)CC(O)C(=O)NCCCCCCCCCC)CC1 (some centres unmarked) [Compound L0219] | 2.79 × 10^6 | 8.48 × 10^7 | 
0.19 ± 0.00 | 172.13 ± 1.53 | CCCCCCCCCCCCOC(=O)C(O)CN(Cc1ccc(CN(CC(O)C(=O)OCCCCCCCCCCCC)CC(O)C(=O)OCCCCCCCCCCCC)cc1)CC(O)C(=O)OCCCCCCCCCCCC (centres unmarked) [Compound L0207] | 1.75 × 10^5 | 2.41 × 10^5 | 
 |  | CCCCCCCCCCOC(=O)C(O)CN(CCCN1CCN(CCCN(CC(O)C(=O)OCCCCCCCCCC)CC(O)C(=O)OCCCCCCCCCC)CC1)CC(O)C(=O)OCCCCCCCCCC (centres unmarked) [Compound L0209] | 7.33 × 10^8 | 1.52 × 10^10 | Particle size (nm) ([2]; Table 4, molar ratio 1.00:6.00:44.50:48.50, N/P 40, IV formulation): 99.95 ± 0.74 nm; Particle size (nm) ([2]; Table 4, molar ratio 1.50:6.00:57.50:35.00, N/P 48, IM formulation): 84.17 ± 0.31 nm
 |  | CCCCCCCCC(CCCCCC)C(=O)OCCCCCCOC(=O)C(O)CN(CCCN1CCN(CCCN(CC(O)C(=O)OCCCCCCOC(=O)C(CCCCCC)CCCCCCCC)CC(O)C(=O)OCCCCCCOC(=O)C(CCCCCC)CCCCCCCC)CC1)CC(O)C(=O)OCCCCCCOC(=O)C(CCCCCC)CCCCCCCC (centres unmarked) [Compound L0197] |  |  | In vivo IVIS ([1]; Table 2, IM, whole body scan): 3.81 × 10^6; In vivo IVIS (liver) ([1]; Table 2, IV): 2.34 × 10^6; In vivo IVIS (spleen) ([1]; Table 2, IV): 7.26 × 10^7; In vivo IVIS [1, 3]: 5.97 × 10^8; Particle size (nm) [2, 4]: 102.47 ± 0.25 nm; PDI ([2]; Table 2, polydispersity value): 0.13 ± 0.02
 |  | CCCCCCCCCCCCNC(=O)C(O)CN(CCCC(=O)NCCCN1CCN(CCCNC(=O)CCCN(CC(O)C(=O)NCCCCCCCCCCCC)CC(O)C(=O)NCCCCCCCCCCCC)CC1)CC(O)C(=O)NCCCCCCCCCCCC (centres unmarked) [Compound L0195] |  |  | In vivo IVIS ([1]; Table 2, IM, whole body scan): 6.81 × 10^5; In vivo IVIS [1, 3]: 4.54 × 10^5; Particle size (nm) [2, 4]: 90.79 ± 0.65 nm; PDI ([2]; Table 2, polydispersity value): 0.17 ± 0.02
 |  | CCCCCCCCCCCCNC(=O)C(O)CN(CCC(=O)NCCCN1CCN(CCCNC(=O)CCN(CC(O)C(=O)NCCCCCCCCCCCC)CC(O)C(=O)NCCCCCCCCCCCC)CC1)CC(O)C(=O)NCCCCCCCCCCCC (centres unmarked) [Compound L0194] |  |  | In vivo IVIS ([1]; Table 2, IM, whole body scan): 1.08 × 10^6; In vivo IVIS [1, 3]: 2.14 × 10^5; Particle size (nm) [2, 4]: 109.10 ± 0.50 nm; PDI ([2]; Table 2, polydispersity value): 0.13 ± 0.00
0.07 ± 0.02 | 109.43 ± 1.16 | CCCCCCCCCCNC(=O)C(O)CN(CC(O)C(=O)NCCCCCCCCCC)[C@H]1CC[C@H](N(CC(O)C(=O)NCCCCCCCCCC)CC(O)C(=O)NCCCCCCCCCC)CC1 (some centres unmarked) [Compound L0218] | 8.49 × 10^5 | 5.55 × 10^5 | 
0.08 ± 0.02 | 106.97 ± 0.21 | CCCCCCOC(C)OCCCCCCOC(=O)C(O)CN1CCN(CCN(CC(O)C(=O)OCCCCCCOC(C)OCCCCCC)CC(O)C(=O)OCCCCCCOC(C)OCCCCCC)CC1 (centres unmarked) [Compound L0220] | 1.32 × 10^6 | 1.82 × 10^8 | 
0.09 ± 0.02 | 87.05 ± 0.47 | CCCCCCCCCCNC(=O)C(O)CN[C@H]1CC[C@@H](N(CC(O)C(=O)NCCCCCCCCCC)CC(O)C(=O)NCCCCCCCCCC)CC1 (some centres unmarked) [Compound L0217] | 2.97 × 10^6 | 2.87 × 10^7 | 
